In patent US12534452B2, “N-(1H-imidazol-2-yl)benzamide compound and pharmaceutical composition comprising the same as active ingredient” (KAINOS MEDICINE, INC., priority 2019, dated 2026):

Molecular target: IRAK4 (Homo sapiens (Human), UniProt Q9NWZ3)
Assay: In vitro IRAK4 phosphorylation activity assay
Format: biochemical
Details: [γ-33P]-ATP, myelin basic protein substrate, 40 minutes at room temperature; categories
In short: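 Radiometric filter-binding assay, no compound–kinase preincubation; 8 mM MOPS pH 7.0, 0.2 mM EDTA, 10 mM Mg acetate, 0.33 mg/mL myelin basic protein substrate, [γ-33P]-ATP. Reaction 40 min at room temperature, stopped with phosphoric acid, scintillation counting; IC50 reported in categories.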

Chain of IRAK4 (Q9NWZ3 whole entry): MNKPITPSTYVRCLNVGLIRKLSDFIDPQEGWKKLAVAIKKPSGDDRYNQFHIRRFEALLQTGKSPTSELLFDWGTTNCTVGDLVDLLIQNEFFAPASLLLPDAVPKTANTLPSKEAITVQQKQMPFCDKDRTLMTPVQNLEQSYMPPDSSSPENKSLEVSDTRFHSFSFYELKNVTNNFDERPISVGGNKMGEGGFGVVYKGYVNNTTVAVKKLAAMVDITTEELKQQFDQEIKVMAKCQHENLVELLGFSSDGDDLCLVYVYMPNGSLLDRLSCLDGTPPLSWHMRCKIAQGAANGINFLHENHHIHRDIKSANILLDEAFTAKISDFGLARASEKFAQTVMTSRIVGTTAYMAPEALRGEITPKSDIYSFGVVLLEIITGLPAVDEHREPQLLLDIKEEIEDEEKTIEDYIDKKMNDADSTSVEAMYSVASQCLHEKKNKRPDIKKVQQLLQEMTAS

Row | IC50 | SMILES
1 | < 50 nM | O=C(Nc1nc(CCCCCCN2CCCC2=O)cn1-c1ccccc1)c1cccc(-c2ccc3[nH]ncc3c2)c1 [Example 259, 3-(1H-indazol-5-yl)-N-(4-(6-(2-oxopyrrolidin-1-yl)hexyl)-1-phenyl-1H-imidazol-2-yl)benzamide]
2 | < 50 nM | CN(C)C1CCN(C(=O)CCCCCc2cn(-c3ccccc3)c(NC(=O)c3cccc(-c4ccc5ncsc5c4)c3)n2)CC1 [Example 287, 3-(benzo[d]thiazol-6-yl)-N-(4-(6-(4-(dimethylamino)piperidin-1-yl)-6-oxohexyl)-1-phenyl-1H-imidazol-2-yl)benzamide]
3 | < 50 nM | O=C(Nc1nc(CCCCCCN2CCCCC2)cn1-c1ccccc1)c1cccc(-c2cccnc2)c1 [Example 270, N-(1-phenyl-4-(6-(piperidin-1-yl)hexyl)-1H-imidazol-2-yl)-3-(pyridin-3-yl)benzamide]
4 | > 100 nM | CN1CCN(C(=O)CCCCCc2cn(-c3ccccc3)c(NC(=O)c3cccc(-c4ccc5scnc5c4)c3)n2)CC1 [Example 288, 3-(benzo[d]thiazol-5-yl)-N-(4-(6-(4-methylpiperazin-1-yl)-6-oxohexyl)-1-phenyl-1H-imidazol-2-yl)benzamide]
5 | > 100 nM | O=C(CCCc1cn(-c2ccccc2)c(NC(=O)c2cccc(-c3ccc4scnc4c3)c2)n1)NC1CC1 [Example 283, 3-(benzo[d]thiazol-5-yl)-N-(4-(4-(cyclopropylamino)-4-oxobutyl)-1-phenyl-1H-imidazol-2-yl)benzamide]
6 | < 50 nM | COC[C@H]1CCCN1C(=O)CCCCCc1cn(-c2ccccc2)c(NC(=O)c2cccc(-c3cn[nH]c3)c2)n1 [Example 101, (R)—N-(4-(6-(2-(methoxymethyl)pyrrolidin-1-yl)-6-oxohexyl)-1-phenyl-1H-imidazol-2-yl)-3-(1H-pyrazol-4-yl)benzamide]
7 | > 100 nM | O=C(CCCCCc1cn(-c2ccccc2)c(NC(=O)c2cccc(-c3ccc4scnc4c3)c2)n1)NC1CC1 [Example 290, 3-(benzo[d]thiazol-5-yl)-N-(4-(6-(cyclopropylamino)-6-oxohexyl)-1-phenyl-1H-imidazol-2-yl)benzamide]
8 | > 100 nM | CN1CCN(NC(=O)CCc2cn(-c3ccccc3)c(NC(=O)c3cccc(-c4cn[nH]c4)c3)n2)CC1 [Example 9, N-(4-(3-((4-methylpiperazin-1-yl)amino)-3-oxopropyl)-1-phenyl-1H-imidazol-2-yl)-3-(1H-pyrazol-4-yl)benzamide]
9 | < 50 nM | O=C(Nc1nc(CCCCCCN2CCOCC2)cn1-c1ccccc1)c1cccc(-c2ccc3[nH]ncc3c2)c1 [Example 254, 3-(1H-indazol-5-yl)-N-(4-(6-morpholinohexyl)-1-phenyl-1H-imidazol-2-yl)benzamide]
10 | < 50 nM | O=C(Nc1nc(CCCCCN2CCSCC2)cn1-c1ccccc1)c1cccc(-c2cn[nH]c2)c1 [Example 120, N-(1-phenyl-4-(5-thiomorpholinopentyl)-1H-imidazol-2-yl)-3-(1H-pyrazol-4-yl)benzamide]
11 | < 50 nM | Cn1cc(-c2cccc(C(=O)Nc3nc(CCCCC(=O)N4CCNCC4)cn3-c3ccccc3)c2)cn1 [Example 204, 3-(1-methyl-1H-pyrazol-4-yl)-N-(4-(5-oxo-5-(piperazin-1-yl)pentyl)-1-phenyl-1H-imidazol-2-yl)benzamide]
12 | < 50 nM | CN1CCN(CCCCc2cn(-c3ccccc3)c(NC(=O)c3cccc(-c4cnn(C)c4)c3)n2)CC1 [Example 221, 3-(1-methyl-1H-pyrazol-4-yl)-N-(4-(4-(4-methylpiperazin-1-yl)butyl)-1-phenyl-1H-imidazol-2-yl)benzamide]
13 | < 50 nM | CN1CCN(C(=O)CCCCCc2cn(-c3ccccc3)c(NC(=O)c3cccc(-c4cnn(C)c4)c3)n2)CC1 [Example 201, 3-(1-methyl-1H-pyrazol-4-yl)-N-(4-(6-(4-methylpiperazin-1-yl)-6-oxohexyl)-1-phenyl-1H-imidazol-2-yl)benzamide]
14 | 50 to 100 nM | O=C(Nc1nc(CCCCCCN2CCCCC2)cn1-c1ccccc1)c1cccc(-c2ccc3[nH]ccc3c2)c1 [Example 253, 3-(1H-indol-5-yl)-N-(1-phenyl-4-(6-(piperidin-1-yl)hexyl)-1H-imidazol-2-yl)benzamide]

More lines, now with the values behind:

Row | SMILES | IC50
15 | Cn1cc(-c2cccc(C(=O)Nc3nc(CCCC(=O)N[C@H]4CC[C@H](N)CC4)cn3-c3ccccc3)c2)cn1 [Example 215, N-(4-(4-(((1R,4R)-4-aminocyclohexyl)amino)-4-oxobutyl)-1-phenyl-1H-imidazol-2-yl)-3-(1-methyl-1H-pyrazol-4-yl)benzamide] | 50 to 100 nM
16 | O=C(Nc1nc(CCCCO)cn1-c1ccccc1)c1cccc(-c2cn[nH]c2)c1 [Example 111, N-(4-(4-hydroxybutyl)-1-phenyl-1H-imidazol-2-yl)-3-(1H-pyrazol-4-yl)benzamide] | < 50 nM
17 | COC[C@@H]1CCCN1C(=O)CCc1cn(-c2ccccc2)c(NC(=O)c2cccc(-c3cn[nH]c3)c2)n1 [Example 19, (S)—N-(4-(3-(2-(methoxymethyl)pyrrolidin-1-yl)-3-oxopropyl)-1-phenyl-1H-imidazol-2-yl)-3-(1H-pyrazol-4-yl)benzamide] | 50 to 100 nM
18 | Cn1cc(-c2cccc(C(=O)Nc3nc(CCCC(=O)NC4CCC(O)CC4)cn3-c3ccccc3)c2)cn1 [Example 156, N-(4-(4-(((1R,4R)-4-hydroxycyclohexyl)amino)-4-oxobutyl)-1-phenyl-1H-imidazol-2-yl)-3-(1-methyl-1H-pyrazol-4-yl)benzamide] | < 50 nM
19 | O=C(CCCCCc1cn(-c2ccccc2)c(NC(=O)c2cccc(-c3cn[nH]c3)c2)n1)Nc1ccccc1 [Example 90, N-(4-(6-oxo-6-(phenylamino)hexyl)-1-phenyl-1H-imidazol-2-yl)-3-(1H-pyrazol-4-yl)benzamide] | < 50 nM
20 | Cn1cc(-c2cccc(C(=O)Nc3nc(CCCC(=O)NC4CC4)cn3-c3ccc(F)cc3)c2)cn1 [Example 300, N-(4-(4-(cyclopropylamino)-4-oxobutyl)-1-(4-fluorophenyl)-1H-imidazol-2-yl)-3-(1-methyl-1H-pyrazol-4-yl)benzamide] | < 50 nM
21 | Cn1cc(-c2cccc(C(=O)Nc3nc(CCCC(=O)NCCN4CCCCC4)cn3-c3ccccc3)c2)cn1 [Example 159, 3-(1-methyl-1H-pyrazol-4-yl)-N-(4-(4-oxo-4-((2-(piperidin-1-yl)ethyl)amino)butyl)-1-phenyl-1H-imidazol-2-yl)benzamide] | < 50 nM
22 | O=C(Nc1nc(CCCN2CCOCC2)cn1-c1ccccc1)c1cccc(-c2cn[nH]c2)c1 [Example 107, N-(4-(3-morpholinopropyl)-1-phenyl-1H-imidazol-2-yl)-3-(1H-pyrazol-4-yl)benzamide] | < 50 nM
23 | O=C(Nc1nc(CCCCCCN2CCCCC2)cn1-c1ccccc1)c1cccc(-c2ccccn2)c1 [Example 269, N-(1-phenyl-4-(6-(piperidin-1-yl)hexyl)-1H-imidazol-2-yl)-3-(pyridin-2-yl)benzamide] | > 100 nM
24 | O=C(CCCc1cn(-c2ccccc2)c(NC(=O)c2cccc(-c3cn[nH]c3)c2)n1)NC1CC1 [Example 68, N-(4-(4-(cyclopropylamino)-4-oxobutyl)-1-phenyl-1H-imidazol-2-yl)-3-(1H-pyrazol-4-yl)benzamide] | < 50 nM
25 | COC1CCC(NC(=O)CCCc2cn(-c3ccccc3)c(NC(=O)c3cccc(-c4cnn(C)c4)c3)n2)CC1 (stereo not shown) [Example 161, N-(4-(4-((4-methoxycyclohexyl)amino)-4-oxobutyl)-1-phenyl-1H-imidazol-2-yl)-3-(1-methyl-1H-pyrazol-4-yl)benzamide] | < 50 nM
26 | O=C(Nc1nc(CCCCCCNC(=O)C2CC2)cn1-c1ccccc1)c1cccc(-c2ccc3[nH]ncc3c2)c1 [Example 262, N-(4-(6-(cyclopropanecarboxamido)hexyl)-1-phenyl-1H-imidazol-2-yl)-3-(1H-indazol-5-yl)benzamide] | < 50 nM
27 | O=C(CCCc1cn(-c2ccccc2)c(NC(=O)c2cccc(-c3cn[nH]c3)c2)n1)NC1CCC1 [Example 69, N-(4-(4-(cyclobutylamino)-4-oxobutyl)-1-phenyl-1H-imidazol-2-yl)-3-(1H-pyrazol-4-yl)benzamide] | < 50 nM
28 | O=C(Nc1nc(CCCO)cn1-c1ccccc1)c1cccc(-c2cn[nH]c2)c1 [Example 105, N-(4-(3-hydroxypropyl)-1-phenyl-1H-imidazol-2-yl)-3-(1H-pyrazol-4-yl)benzamide] | < 50 nM
29 | O=C(CCCCc1cn(-c2ccccc2)c(NC(=O)c2cccc(-c3cn[nH]c3)c2)n1)NC1CC1 [Example 88, N-(4-(5-(cyclopropylamino)-5-oxopentyl)-1-phenyl-1H-imidazol-2-yl)-3-(1H-pyrazol-4-yl)benzamide] | < 50 nM
30 | CC1(C)CCCN(C(=O)CCc2cn(-c3ccccc3)c(NC(=O)c3cccc(-c4cn[nH]c4)c3)n2)C1 [Example 34, N-(4-(3-(3,3-dimethylpiperidin-1-yl)-3-oxopropyl)-1-phenyl-1H-imidazol-2-yl)-3-(1H-pyrazol-4-yl)benzamide] | < 50 nM
31 | Cn1cc(-c2cccc(C(=O)Nc3nc(CCCCC(=O)NC4CCOCC4)cn3-c3ccccc3)c2)cn1 [Example 197, 3-(1-methyl-1H-pyrazol-4-yl)-N-(4-(5-oxo-5-((tetrahydro-2H-pyran-4-yl)amino)pentyl)-1-phenyl-1H-imidazol-2-yl)benzamide] | < 50 nM
32 | C[C@@H]1CCCCN1C(=O)CCc1cn(-c2ccccc2)c(NC(=O)c2cccc(-c3cn[nH]c3)c2)n1 [Example 30, (R)—N-(4-(3-(2-methylpiperidin-1-yl)-3-oxopropyl)-1-phenyl-1H-imidazol-2-yl)-3-(1H-pyrazol-4-yl)benzamide] | < 50 nM
33 | O=C(Nc1nc(CCC(=O)N2CC[C@@H](C(=O)O)C2)cn1-c1ccccc1)c1cccc(-c2cn[nH]c2)c1 [Example 25, (R)-1-(3-(2-(3-(1H-pyrazol-4-yl)benzamido)-1-phenyl-1H-imidazol-4-yl)propanoyl)pyrrolidine-3-carboxylic acid] | 50 to 100 nM
34 | O=C(Nc1nc(CCCCCCNc2ccccc2)cn1-c1ccccc1)c1cccc(-c2cn[nH]c2)c1 [Example 122, N-(1-phenyl-4-(6-(phenylamino)hexyl)-1H-imidazol-2-yl)-3-(1H-pyrazol-4-yl)benzamide] | 50 to 100 nM
